Results from paper PMC8400955 (Pharmaceuticals, 2021).
Like-named read-outs stand apart in the source and are kept apart here.

How the values were obtained:
CYP2B6 [1] = experiment: CYP induction (enzyme activity) in cryopreserved human hepatocytes, CYP2B6; conditions: for fold induction at 72 h, 0.15 µM / fold induction at 72 h, 1.5 µM / fold induction at 72 h, 5 µM / fold induction at 72 h, 15 µM: human, plated cryopreserved human hepatocytes
Description: The UPLC–MS/MS (SHIMADZU, LC-30AD) equipped with waters Xselect®HSS T3 2.5 μm (2.1 × 50 mm) was used to detect the marker metabolites in the enzyme activity assay. The fold-induction enzyme activity was determined using the ratio calculation (the calculation details are available in the Supplementary Materials).
CYP activity was expressed as pmol/min/million cells where pmol was defined as the amount of metabolite formed during the reaction. […] The fold-induction enzyme activity was determined by the ratio:
Fold of induction = CYP activity(induced) / CYP activity(vehicle)
% of positive control = (𝑪𝒀𝑷 𝒂𝒄𝒕𝒊𝒗𝒊𝒕𝒚(𝒊𝒏𝒅𝒖𝒄𝒆𝒅)ି 𝑪𝒀𝑷 𝒂𝒄𝒕𝒊𝒗𝒊𝒕𝒚(𝑫𝑴𝑺𝑶))(𝑪𝒀𝑷 𝒂𝒄𝒕𝒊𝒗𝒊𝒕𝒚(𝒑𝒐𝒔𝒊𝒕𝒊𝒗𝒆 𝒄𝒐𝒏𝒕𝒓𝒐𝒍)ି 𝑪𝒀𝑷 𝒂𝒄𝒕𝒊𝒗𝒊𝒕𝒚(𝑫𝑴𝑺𝑶))х 𝟏𝟎𝟎 Based on the enzyme activity, a minimum of 2-fold increase of a response compared to vehicle control and ≥ 20% of the positive control was considered as the cutoff for a positive signal in in vitro induction

CYP2B6 [2] = molecular target: T1, CYP2B6 (Homo sapiens, UniProt P20813); experiment: CYP phenotyping, recombinant CYP2B6
T1 sequence (P20813 1-491): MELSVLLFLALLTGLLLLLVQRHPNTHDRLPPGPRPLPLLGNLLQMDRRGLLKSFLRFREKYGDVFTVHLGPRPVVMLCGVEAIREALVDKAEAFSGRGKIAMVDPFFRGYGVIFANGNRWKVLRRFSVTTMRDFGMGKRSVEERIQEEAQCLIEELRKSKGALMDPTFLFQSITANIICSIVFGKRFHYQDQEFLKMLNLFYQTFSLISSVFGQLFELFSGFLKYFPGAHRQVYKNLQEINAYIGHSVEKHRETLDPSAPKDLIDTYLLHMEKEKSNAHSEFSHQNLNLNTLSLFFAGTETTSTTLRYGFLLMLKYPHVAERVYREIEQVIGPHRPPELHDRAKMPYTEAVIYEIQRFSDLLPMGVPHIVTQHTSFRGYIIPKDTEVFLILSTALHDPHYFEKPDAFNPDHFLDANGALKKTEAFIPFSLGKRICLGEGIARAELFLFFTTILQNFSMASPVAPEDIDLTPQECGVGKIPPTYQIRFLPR
Description: (§9) Bactosomes prepared from E. coli that heterologously expressed individual human CYP isoforms together with human CYP reductase were obtained from CYPEX LTD (Scotland, UK), and stored at −80 °C prior to use. […] Timepoints were taken at 0, 5, 10, 15, 20, and 30 min. Substrate disappearance was used to calculate intrinsic clearance (Clint) and half-life (t1/2). All incubations were performed in triplicate. […] The chemical inhibitors for CYP1A2, 2A6, 2B6, 2C8, 2C9, 2C19, 2D6, and 3A4 were furafylline, tranylcypromine, ticlopidine, montelukast, sulfaphenazole, N-3-benzylnirvanol, quinidine, and ketoconazole, respectively. Timepoints were collected at 0, 15, 30, 45, and 60 min, and the remaining percentage of the parent drug at each timepoint was calculated (the calculation details are available in the Supplementary Materials). All incubations were performed in triplicate.
(§10) 1.3.1 Intrinsic Clearance (Heterologously Expressed Human Cytochrome P450) All calculations were carried out using Microsoft Excel. The slope, k, was determined by linear regression of the natural logarithm of percent parent disappearance vs. incubation time curve. Peak areas for test article and internal standard were determined from extracted ion chromatograms. The peak area ratio was used to calculated for the results.
(§11) The half-life value (t1/2 rCYPi) was determined from the slope value: […]

[3] = Bidirectional permeability across Caco-2 cell monolayers; type: in vitro ADME; conditions: human; for recovery at 120 min, 1 μM: Caco-2, Caco-2, 1 μM; for recovery at 120 min, 5 μM: Caco-2, Caco-2, 5 μM; for recovery at 120 min, 15 μM: Caco-2, Caco-2, 15 μM
Description: (§1) The bidirectional permeability and absorption mechanism of ZB716 was evaluated across Caco-2 cell monolayers.
(§2) The apical-to-basolateral (A–B) and basolateral-to-apical (B–A) transport of ZB716 in HBSS (25 mM HEPES) with 1% BSA was measured across Caco-2 cell monolayers. […] All incubations were performed in triplicate, and the integrity of the cell monolayers was confirmed using the marker Lucifer yellow.
(§3) The slope, k, was determined by linear
(§4) using the following equation: […]
(§5) 1.4 Intestinal Mucosal Permeation of ZB716
(§6) Papp= VAArea х timeх ሾdrugሿreceiverሾdrugሿinitial,donor

Caco-2 cell monolayers = experiment: as above; type: in vitro ADME; conditions: Caco-2, according to the results at 15 μM
Description: as §1, §2, §3, §4, §5, §6

CYP2C8 = molecular target: T2, CYP2C8 (Homo sapiens, UniProt P10632); experiment: CYP phenotyping, recombinant CYP2C8
T2 sequence (P10632 1-490): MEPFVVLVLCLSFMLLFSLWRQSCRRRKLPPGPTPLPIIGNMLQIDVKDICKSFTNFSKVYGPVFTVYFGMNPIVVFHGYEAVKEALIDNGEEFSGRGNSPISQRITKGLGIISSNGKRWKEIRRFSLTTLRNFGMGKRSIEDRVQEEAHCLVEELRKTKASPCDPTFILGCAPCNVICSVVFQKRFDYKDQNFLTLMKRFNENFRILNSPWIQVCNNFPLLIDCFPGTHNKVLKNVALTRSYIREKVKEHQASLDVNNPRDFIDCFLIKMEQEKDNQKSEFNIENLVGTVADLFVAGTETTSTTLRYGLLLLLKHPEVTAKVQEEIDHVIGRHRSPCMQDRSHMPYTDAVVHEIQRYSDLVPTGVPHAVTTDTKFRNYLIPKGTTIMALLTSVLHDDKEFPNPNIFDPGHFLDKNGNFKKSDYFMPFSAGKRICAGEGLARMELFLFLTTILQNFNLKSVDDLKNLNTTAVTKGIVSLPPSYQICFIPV
Description: as §9, §10, §11

[4] = Plasma protein binding by equilibrium dialysis, monkey; type: in vitro ADME; conditions: plasma (EDTA-K2 as anticoagulant)
Description: (§7) The in vitro binding of ZB716 to plasma proteins was determined by equilibrium dialysis technique in mouse, rat, dog, monkey, and human plasma (EDTA-K2 as anticoagulant), over the concentration range of 0.1–10 μM. The free concentration of ZB716 was below the lower limit of quantitation at 0.1, 1, and 10 μM in human, monkey, dog, rat, and mouse plasma.
(§8) The equilibrium dialysis method was used to investigate the in vitro binding of ZB716 to human, monkey, dog, rat, and mouse plasma proteins. The dialysis phosphate buffer solution (100 mM, pH 7.4) and plasma samples containing 0.1, 1, and 10 μM of ZB716 were added to separate chambers of dialysis wells of the HTDialysis device. The dialysis plate was placed in an incubator at 37 °C with 5% CO2 at approximately 100 rpm for 6 h. After incubation, the seal was removed, and 50 μL each of post-dialysis samples was pipetted from both the buffer and plasma chambers into fresh 96-well plates. The samples were analyzed via UPLC–MS/MS. The bound fraction, unbound fraction, recovery (%), and remaining (%) were calculated by Equations (2)–(5):%Unbound = (Conc.buffer chamber/Conc.plasma chamber) × 100(2) %Bound = 100% − %Unbound (3) %Recovery = (Conc.buffer chamber + Conc.plasma chamber)/Conc.Total sample × 100 (4) %Remaining = Conc.6h/Conc.0h × 100 (5)

monkey plasma proteins = experiment: as above; type: in vitro ADME; conditions: for Remaining: 6 h
Description: as §7, §8

For `C[C@]12CC[C@@H]3c4ccc(B(O)O)cc4C[C@@H](CCCCCCCCC[S+]([O-])CCCC(F)(F)C(F)(F)F)[C@H]3[C@@H]1CC[C@@H]2O` (stereo partly shown) [ZB716, fulvestrant-3-boronic acid], the “induction fold compared to the vehicle control” value (CYP2B6 [1]; all three donors, 1.5–15 μM) was 2.98–6.40, the “induction percentage of the positive control” value (CYP2B6 [1]; all three donors, 1.5–15 μM) was 37.4–92.1% and the “Percent of Control” value (CYP2B6 [1]; donor one, 0.15 µM) was 2.22%. For the same compound, the “Percent of Control” value (CYP2B6 [1]; donor one, 1.5 µM) was 17.2%, the “Percent of Control” value (CYP2B6 [1]; donor one, 5 µM) was 70.6% and the “Percent of Control” value (CYP2B6 [1]; donor one, 15 µM) was 73.0%. The “Percent of Control” value (CYP2B6 [1]; donor three, 0.15 µM) was 2.61%, the “Percent of Control” value (CYP2B6 [1]; donor three, 1.5 µM) was 39.2% and the “Percent of Control” value (CYP2B6 [1]; donor three, 5 µM) was 37.4%. For the same compound, the “Percent of Control” value (CYP2B6 [1]; donor three, 15 µM) was 4.18%, the “Percent of Control” value (CYP2B6 [1]; donor two, 0.15 µM) was 3.16% and the “Percent of Control” value (CYP2B6 [1]; donor two, 1.5 µM) was 19.8%. The “Percent of Control” value (CYP2B6 [1]; donor two, 5 µM) was 71.7%, the “Percent of Control” value (CYP2B6 [1]; donor two, 15 µM) was 92.1% and the fold induction at 72 h, 0.15 µM (CYP2B6 [1]; donor one, 0.15 µM) was 1.1 ± 0.05. It also gave a fold induction at 72 h, 1.5 µM (CYP2B6 [1]; donor one, 1.5 µM) of 1.77 ± 0.13, a fold induction at 72 h, 5 µM (CYP2B6 [1]; donor one, 5 µM) of 4.14 ± 0.06 and a fold induction at 72 h, 15 µM (CYP2B6 [1]; donor one, 15 µM) of 4.24 ± 0.47. The fold induction at 72 h, 0.15 µM (CYP2B6 [1]; donor three, 0.15 µM) was 1.14 ± 0.09, the fold induction at 72 h, 1.5 µM (CYP2B6 [1]; donor three, 1.5 µM) was 3.07 ± 0.36 and the fold induction at 72 h, 5 µM (CYP2B6 [1]; donor three, 5 µM) was 2.98 ± 0.74. It also gave a fold induction at 72 h, 15 µM (CYP2B6 [1]; donor three, 15 µM) of 1.22 ± 0.42, a fold induction at 72 h, 0.15 µM (CYP2B6 [1]; donor two, 0.15 µM) of 1.19 ± 0.1 and a fold induction at 72 h, 1.5 µM (CYP2B6 [1]; donor two, 1.5 µM) of 2.16 ± 0.07. For the same compound, the fold induction at 72 h, 5 µM (CYP2B6 [1]; donor two, 5 µM) was 5.21 ± 0.24, the fold induction at 72 h, 15 µM (CYP2B6 [1]; donor two, 15 µM) was 6.4 ± 0.16 and the half-life at 2 µM (CYP2B6 [2]; human) was 41 ± 6.8 min. It also gave a Clint (CYP2B6 [2]; recombinant CYP2B6, 2 µM ZB716) of 0.343 ± 0.052 µL/min/pmol CYP, a recovery at 120 min, 1 μM ([3]; read-out: Recovery A to B) of less than 66.6% and a recovery at 120 min, 1 μM ([3]; read-out: Recovery B to A) of 66.5 ± 0.7%. For the same compound, the recovery at 120 min, 5 μM ([3]; read-out: Recovery A to B) was less than 67%, the recovery at 120 min, 5 μM ([3]; read-out: Recovery B to A) was 73.7 ± 1.5% and the recovery at 120 min, 15 μM ([3]; read-out: Recovery A to B) was 75.7 ± 2%. The recovery at 120 min, 15 μM ([3]; read-out: Recovery B to A) was 84.2 ± 4.8%, the Papp A→B at 120 min, 1 μM ([3]; Caco-2, 1 μM) was less than 0.778 ×10⁻⁶ cm/s and the Papp B→A at 120 min, 1 μM ([3]; Caco-2, 1 μM) was 0.747 ± 0.0316 ×10⁻⁶ cm/s. It also gave an efflux ratio at 120 min, 1 μM ([3]; Caco-2, 1 μM) greater than 0.935, a Papp A→B at 120 min, 5 μM ([3]; Caco-2, 5 μM) of less than 0.159 ×10⁻⁶ cm/s and a Papp B→A at 120 min, 5 μM ([3]; Caco-2, 5 μM) of 0.82 ± 0.127 ×10⁻⁶ cm/s. The efflux ratio at 120 min, 5 μM ([3]; Caco-2, 5 μM) was greater than 4.55, the Papp A→B at 120 min, 15 μM ([3]; Caco-2, 15 μM) was 0.188 ± 0.021 ×10⁻⁶ cm/s and the Papp B→A at 120 min, 15 μM ([3]; Caco-2, 15 μM) was 0.534 ± 0.028 ×10⁻⁶ cm/s. The efflux ratio at 120 min, 15 μM ([3]; Caco-2, 15 μM) was 2.87 ± 0.49, the permeability class (Caco-2 cell monolayers) was “low permeability” and the half-life at 2 µM (CYP2C8; human) was 11.1 ± 1.2 min. For the same compound, the Clint (CYP2C8; recombinant CYP2C8, 2 µM ZB716) was 1.25 ± 0.14 µL/min/pmol CYP, the recovery at 6 h, 0.1 μM ([4]; pH 7.4, 0.1 μM) was less than 68.2% and the recovery at 6 h, 1 μM ([4]; pH 7.4, 1 μM) was less than 70%. It also gave a recovery at 6 h, 10 μM ([4]; pH 7.4, 10 μM) of less than 87.2%, a Bound (monkey plasma proteins; 0.1 μM) greater than 96.4% and an Unbound (monkey plasma proteins; 0.1 μM) of less than 3.63%. The Remaining (monkey plasma proteins; 0.1 μM) was 65.3 ± 2.8%, the Bound (monkey plasma proteins; 1 μM) was greater than 99.6% and the Unbound (monkey plasma proteins; 1 μM) was less than 0.326%. The Remaining (monkey plasma proteins; 1 μM) was 70.9 ± 4.8%, the Bound (monkey plasma proteins; 10 μM) was greater than 99.97% and the Unbound (monkey plasma proteins; 10 μM) was less than 0.0308%. The Remaining (monkey plasma proteins; 10 μM) was 93.9 ± 10.0%.
